# From patent US11661426B2, “Imidazole-containing inhibitors of ALK2 kinase” (BioCryst Pharmaceuticals, Inc., priority 2017, dated 2023)
# Biological target: ALK2 (Homo sapiens (Human), UniProt Q04771)
# Assay: ALK2 inhibition, LanthaScreen Eu Kinase Binding Assay (ThermoFisher Scientific / Life Technologies)
# Details: read-out: Measured Ki (IC50) Value for Compounds: IC50
# Method: Biochemical assays to measure the inhibitory effects of the compounds were performed by ThermoFisher Scientific (Life Technologies). ALK2 inhibition was tested using LanthaScreen™ Eu Kinase Binding Assay screening protocol.
# ALK2, sequence (Q04771 21-509): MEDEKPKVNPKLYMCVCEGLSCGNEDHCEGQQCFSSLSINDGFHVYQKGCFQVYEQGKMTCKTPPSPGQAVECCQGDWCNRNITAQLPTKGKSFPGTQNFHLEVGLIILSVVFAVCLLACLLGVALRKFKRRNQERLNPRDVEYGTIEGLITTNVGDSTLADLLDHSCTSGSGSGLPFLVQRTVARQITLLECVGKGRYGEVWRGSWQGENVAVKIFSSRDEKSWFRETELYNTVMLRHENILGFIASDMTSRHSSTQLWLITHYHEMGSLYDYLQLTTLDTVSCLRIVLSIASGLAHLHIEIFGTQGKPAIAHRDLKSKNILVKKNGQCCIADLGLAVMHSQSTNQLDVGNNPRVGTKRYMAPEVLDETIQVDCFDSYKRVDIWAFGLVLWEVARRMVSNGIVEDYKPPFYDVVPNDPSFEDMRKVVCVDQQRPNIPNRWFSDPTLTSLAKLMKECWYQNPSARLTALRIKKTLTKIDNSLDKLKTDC
row,Compound,IC50 [nM]
1,"COc1cc(-n2cnc(Nc3nc(N4CCC[C@H]4C(N)=O)nc4scnc34)c2)cc(OC)c1OC [Compound 158b, (S)-1-(7-((1-(3,4,5-trimethoxyphenyl)-1H-imidazol-4-yl)amino)thiazolo[5,4-d]pyrimidin-5-yl)pyrrolidine-2-carboxamide]",< 100
2,"COc1cc(-n2cnc(Nc3nc(N4CCC[C@H]4C(N)=O)nc4c3ccn4S(=O)(=O)c3ccc(C)cc3)c2)cc(OC)c1OC [Compound 142a, (S)-1-(7-tosyl-4-((1-(3,4,5-trimethoxyphenyl)-1H-imidazol-4-yl)amino)-7H-pyrrolo[2,3-d]pyrimidin-2-yl)pyrrolidine-2-carboxamide]",< 100
3,"COc1cc(-n2cnc(Nc3nc4c(c(N5CCC[C@H]5CO)n3)CN(C(=O)[C@@H]3CCC(=O)N3)CC4)c2)cc(OC)c1OC [Compound 240a, (S)-5-(4-((S)-2-(hydroxymethyl)pyrrolidin-1-yl)-2-((1-(3,4,5-trimethoxyphenyl)-1H-imidazol-4-yl)amino)-5,6,7,8-tetrahydropyrido[4,3-d]pyrimidine-6-carbonyl)pyrrolidin-2-one]",< 100
4,"CN1CCN(c2nc(Nc3cn(C)cn3)c3cccn3n2)CC1 [Compound 34a, N-(1-methyl-1H-imidazol-4-yl)-2-(4-methylpiperazin-1-yl)pyrrolo[2,1-f][1,2,4]triazin-4-amine]",> 1000
5,"COc1cc(-n2cnc(Nc3nc(N4CCC[C@@H]4CO)nc4sccc34)c2)cc(OC)c1OC [Compound 297a, (R)-(1-(4-((1-(3,4,5-trimethoxyphenyl)-1H-imidazol-4-yl)amino)thieno[2,3-d]pyrimidin-2-yl)pyrrolidin-2-yl)methanol]",< 100
6,"COc1cc(-n2cnc(Nc3nc(-c4ccccc4CO)nn4cccc34)c2)cc(OC)c1OC [Compound 137a, (2-(4-((1-(3,4,5-trimethoxyphenyl)-1H-imidazol-4-yl)amino)pyrrolo[2,1-f][1,2,4]triazin-2-yl)phenyl)methanol]",< 100
7,"COc1cc(-n2cnc(Nc3nc(N4CCCC4)nc4c3CCNC4)c2)cc(OC)c1OC [Compound 184b, 2-(pyrrolidin-1-yl)-N-(1-(3,4,5-trimethoxyphenyl)-1H-imidazol-4-yl)-5,6,7,8-tetrahydropyrido[3,4-d]pyrimidin-4-amine]",< 100
8,"COc1cc(Cl)cc(-n2cnc(Nc3nc(N4CCC[C@H]4CO)nn4cccc34)c2)c1 [Compound 322b, (S)-(1-(4-((1-(3-chloro-5-methoxyphenyl)-1H-imidazol-4-yl)amino)pyrrolo[2,1-f][1,2,4]triazin-2-yl)pyrrolidin-2-yl)methanol]",< 100
9,"COc1cc(-n2cnc(Nc3nc(N4CCCC4)c4ncsc4n3)c2)cc(OC)c1OC [Compound 233b, 7-(pyrrolidin-1-yl)-N-(1-(3,4,5-trimethoxyphenyl)-1H-imidazol-4-yl)thiazolo[5,4-d]pyrimidin-5-amine]",100 to 1000
10,"COc1cc(-n2cnc(Nc3nc(N4CCC[C@H]4C(N)=O)nn4c(CN5CCC[C@H]5C(N)=O)ccc34)c2)cc(OC)c1OC [Compound 118b, (S)-1-((2-((S)-2-carbamoylpyrrolidin-1-yl)-4-((1-(3,4,5-trimethoxyphenyl)-1H-imidazol-4-yl)amino)pyrrolo[2,1-f][1,2,4]triazin-7-yl)methyl)pyrrolidine-2-carboxamide]",< 100
11,"COc1cc(-n2cnc(Nc3nc(N4CCC[C@H]4CO)nc4c3ccn4CC3CCCCC3)c2)cc(OC)c1OC [Compound 462c, (S)-(1-(7-(cyclohexylmethyl)-4-((1-(3,4,5-trimethoxyphenyl)-1H-imidazol-4-yl)amino)-7H-pyrrolo[2,3-d]pyrimidin-2-yl)pyrrolidin-2-yl)methanol]",< 100
12,"Cn1cnc(Nc2nc(N3CCCC3c3ccccc3)nc3ccoc23)c1 (stereo not drawn) [Compound 13a, N-(1-methyl-1H-imidazol-4-yl)-2-(2-phenylpyrrolidin-1-yl)furo[3,2-d]pyrimidin-4-amine]",< 100
13,"COc1cc(-n2cnc(Nc3nc(N4CCC[C@H]4CO)nc4ccccc34)c2)cc(OC)c1OC [Compound 86b, (S)-(1-(4-((1-(3,4,5-trimethoxyphenyl)-1H-imidazol-4-yl)amino)quinazolin-2-yl)pyrrolidin-2-yl)methanol]",< 100
14,"COc1cc(-n2cnc(Nc3nc(N4CCC[C@H]4CO)nc4[nH]ncc34)c2)cc(OC)c1OC [Compound 329a, (S)-(1-(4-((1-(3,4,5-trimethoxyphenyl)-1H-imidazol-4-yl)amino)-1H-pyrazolo[3,4-d]pyrimidin-6-yl)pyrrolidin-2-yl)methanol]",< 100
15,"COc1cc(-n2cnc(Nc3nc(N4CCC[C@H]4CO)nc4cc(C)ccc34)c2)cc(OC)c1OC [Compound 391c, (S)-(1-(7-methyl-4-((1-(3,4,5-trimethoxyphenyl)-1H-imidazol-4-yl)amino)quinazolin-2-yl)pyrrolidin-2-yl)methanol]",< 100
16,"c1ccc([C@@H]2CCCN2c2nc(Nc3cn(C4CCC4)cn3)c3cccn3n2)nc1 [Compound 64a, (S)—N-(1-cyclobutyl-1H-imidazol-4-yl)-2-(2-(pyridin-2-yl)pyrrolidin-1-yl)pyrrolo[2,1-f][1,2,4]triazin-4-amine]",< 100
17,"COc1cc(-n2cnc(Nc3nc4c(c(N5CCC[C@H]5C(N)=O)n3)CCN(Cc3ccccc3)C4)c2)cc(OC)c1OC [Compound 166b, (S)-1-(7-benzyl-2-((1-(3,4,5-trimethoxyphenyl)-1H-imidazol-4-yl)amino)-5,6,7,8-tetrahydropyrido[3,4-d]pyrimidin-4-yl)pyrrolidine-2-carboxamide]",< 100
18,"COc1cc(-n2cnc(Nc3nc4c(c(N5CCC[C@H]5CO)n3)CCN(Cc3ccc(C(F)(F)F)cc3)C4)c2)cc(OC)c1OC [Compound 215a, (S)-(1-(7-(4-(trifluoromethyl)benzyl)-2-((1-(3,4,5-trimethoxyphenyl)-1H-imidazol-4-yl)amino)-5,6,7,8-tetrahydropyrido[3,4-d]pyrimidin-4-yl)pyrrolidin-2-yl)methanol]",< 100
19,"COc1cc(-n2cnc(Nc3nc(N4CCC[C@H]4CO)nn4c(CN5CCOCC5)ccc34)c2)cc(OC)c1OC [Compound 111b, (S)-(1-(7-(morpholinomethyl)-4-((1-(3,4,5-trimethoxyphenyl)-1H-imidazol-4-yl)amino)pyrrolo[2,1-f][1,2,4]triazin-2-yl)pyrrolidin-2-yl)methanol]",< 100
20,"COc1cc(-n2cnc(Nc3nc(N4CCC[C@@H]4C(N)=O)nc4c3CCC4)c2)cc(OC)c1OC [Compound 291a, (R)-1-(4-((1-(3,4,5-trimethoxyphenyl)-1H-imidazol-4-yl)amino)-6,7-dihydro-5H-cyclopenta[d]pyrimidin-2-yl)pyrrolidine-2-carboxamide]",< 100
21,"COc1cc(-n2cnc(Nc3nc(N4CCC[C@H]4CO)c4cnn(C5CCC5)c4n3)c2)cc(OC)c1OC [Compound 464d, (S)-(1-(1-cyclobutyl-6-((1-(3,4,5-trimethoxyphenyl)-1H-imidazol-4-yl)amino)-1H-pyrazolo[3,4-d]pyrimidin-4-yl)pyrrolidin-2-yl)methanol]",< 100
22,"COc1cc(-n2cnc(Nc3nc(N4CCC[C@H]4CO)c4ccc(C5=CCNCC5)cc4n3)c2)cc(OC)c1OC [Compound 385c, (S)-(1-(7-(1,2,3,6-tetrahydropyridin-4-yl)-2-((1-(3,4,5-trimethoxyphenyl)-1H-imidazol-4-yl)amino)quinazolin-4-yl)pyrrolidin-2-yl)methanol]",< 100
23,"COc1cc(-n2cnc(Nc3nc(N4CC[C@@H](O)C4)c4cccn4n3)c2)cc(OC)c1OC [Compound 209b, (R)-1-(2-((1-(3,4,5-trimethoxyphenyl)-1H-imidazol-4-yl)amino)pyrrolo[2,1-f][1,2,4]triazin-4-yl)pyrrolidin-3-ol]",< 100
24,"COc1cc(-n2cnc(Nc3nc4c(c(N5CCC[C@H]5CO)n3)CCN(CC(N)=O)C4)c2)cc(OC)c1OC [Compound 218a, (S)-2-(4-(2-(hydroxymethyl)pyrrolidin-1-yl)-2-((1-(3,4,5-trimethoxyphenyl)-1H-imidazol-4-yl)amino)-5,6-dihydropyrido[3,4-d]pyrimidin-7(8H)-yl)acetamide]",< 100
25,"COc1cc(-n2cnc(Nc3nc(N4CCC[C@@H]4CO)nc4cc(C(F)(F)F)ccc34)c2)cc(OC)c1OC [Compound 293a, (R)-(1-(7-(trifluoromethyl)-4-((1-(3,4,5-trimethoxyphenyl)-1H-imidazol-4-yl)amino)quinazolin-2-yl)pyrrolidin-2-yl)methanol]",< 100
26,"N#Cc1ccc(-n2cnc(Nc3nc(N4CCC[C@H]4CO)nn4cccc34)c2)cc1 [Compound 116c, (S)-4-(4-((2-(2-(hydroxymethyl)pyrrolidin-1-yl)pyrrolo[2,1-f][1,2,4]triazin-4-yl)amino)-1H-imidazol-1-yl)benzonitrile]",100 to 1000
27,"COc1cc(-n2cnc(Nc3nc(N4CCC[C@H]4CO)nn4c(C(=O)N5CCCCC5)ccc34)c2)cc(OC)c1OC [Compound 410e, (S)-(2-(2-(hydroxymethyl)pyrrolidin-1-yl)-4-((1-(3,4,5-trimethoxyphenyl)-1H-imidazol-4-yl)amino)pyrrolo[2,1-f][1,2,4]triazin-7-yl)(piperidin-1-yl)methanone]",< 100
28,"COc1cc(-n2cnc(Nc3nc(N4CCC[C@@H]4CO)c4ccc(OC(C)C)cc4n3)c2)cc(OC)c1OC [Compound 278b, (R)-(1-(7-isopropoxy-2-((1-(3,4,5-trimethoxyphenyl)-1H-imidazol-4-yl)amino)quinazolin-4-yl)pyrrolidin-2-yl)methanol]",< 100
29,"COc1cc(-n2cnc(Nc3nc(N4CCC[C@H]4CO)nn4c(CN5CCN(C)CC5)ccc34)c2)cc(OC)c1OC [Compound 112b, (S)-(1-(7-((4-methylpiperazin-1-yl)methyl)-4-((1-(3,4,5-trimethoxyphenyl)-1H-imidazol-4-yl)amino)pyrrolo[2,1-f][1,2,4]triazin-2-yl)pyrrolidin-2-yl)methanol]",< 100
30,"O=C1OCc2ccc(-n3cnc(Nc4nc(N5CCC[C@H]5CO)nn5cccc45)c3)cc21 [Compound 469g, (S)-6-(4-((2-(2-(hydroxymethyl)pyrrolidin-1-yl)pyrrolo[2,1-f][1,2,4]triazin-4-yl)amino)-1H-imidazol-1-yl)isobenzofuran-1(3H)-one]",100 to 1000
